# From US20080108573A1, “Compositions And Methods For Treatment Of Cardiovascular Disease” (priority 2004, published 2008)
# “Also recorded” adds a separate entry of the source.
# Tests used:
# [1] = tested on: WKY rat fed a high salt diet; WKY rat fed a high salt diet and given L-NAME; assay: Effect of VIP infusion on fibrosis in animal models of fibrosis (Example 3); format: in vivo; details: VIP 5 pmol/kg/min, 4 weeks via Alzet minipump; WKY high salt diet and high salt diet plus L-NAME (FIGS. 2 and 3)
# Protocol: Three animal models of myocardial fibrosis were used (animals obtained from Australian Animal Resources, Perth, Western Australia, Australia) • i) WKY rat fed a high salt diet • ii) WKY rat fed a high salt diet and given L-NAME (ω-monomethyl-nitro-L-arginine, Sigma Chemical Co.) 10 mg/kg/day in the drinking water • iii) WKY rats with diabetes induced by streptozotocin injection 60 mg/kg
# In each model the rats were randomised to VIP (H-[…]NH2, obtained from Auspep, Australia) or vehicle control (Haemaccel, Aventis) infusion for 4 weeks via Alzet minipump (n=6-8 each experimental group). The dose of VIP was 5 pmol/kg/min.
# In models i) and ii) 14 week old WKY rats were commenced on high salt diet or high salt diet plus L-NAME. […] Myocardial VIP and myocardial fibrosis were quantitated. […]
# Myocardial VIP concentrations and myocardial fibrosis were quantitiated.
# (§1) VIP was measured by radioimmunoassay in known manner (see Davis R. E., Shelley S., Macdonald G. J. & Duggan K. A. (1992) The effects of a high sodium diet on the metabolism and secretion of vasoactive intestinal peptide in the rabbit. J. Physiol. 451:17-23. Duggan K. A., Ye V. Z. C., Jones D. M. Davis R. E. & Macdonald G. J. (1995) Effects of Endopeptidase 24.11 blockade on plasma and tissue concentrations of vasoactive intestinal peptide Clin. Sci. 89:267-271). […]
# [2] = tested on: SHR and WKY rats on low/high salt diet, L-NAME plus high salt diet, or streptozotocin induced diabetes; assay: Preliminary four-week VIP infusion in rat models of myocardial fibrosis (Example 1); format: in vivo; details: VIP 7.2 nmol/kg/day via Alzet mini pump, four weeks, vs vehicle
# From the text: Further preliminary experiments have been conducted on a number of animal models, which encompass a range of fibrous tissue replacement, varying from mild to moderate to severe. The experiments on the animal models encompassed a variety of aetiologies (alone and in combination) and a range of levels of induced fibrosis. For these experiments two types of rats were used, spontaneously hypertensive rats (SHR) and normotensive control Wistar-Kyoto rats (WKY). The WKY rats were given: 1) low salt diet, 2) high salt diet, or 3) L-NAME (ω-monomethyl-nitro-L-arginine; 10 mg/kg/day) plus high salt diet. The SHR rats were given low or high salt diets. The effect of VIP infusion in diabetic heart disease was also studied in the WKY rate with streptozotocin induced diabetes.
# In each treatment group, rats were randomised to VIP or vehicle infusion (n=24 in each group) for four weeks. VIP was administered via Alzet mini pump at a rate of 7.2 nmol/kg/day.
# After four weeks, the rats were anaesthetised and the hearts were harvested. Myocardial VIP concentrations and myocardial fibrosis were quantitated.
# isolated rat heart = isolated rat heart perfused with VIP, ischaemia then reperfusion; cited from earlier work
# [3] = tested on: WKY rats on low, intermediate, high salt diet or high salt diet plus L-NAME; assay: Acute VIP infusion: uptake of VIP by the myocardium (Examples 1 and 2); format: in vivo; details: VIP 10 pmol/kg/min for one hour, rat models with increasing degree of fibrosis
# Protocol: In preliminary studies a series of acute infusion experiments have been conducted in animal models.
# Fourteen week old WKY rats were randomised to low salt diet (0.008%), intermediate salt diet (2.2%), high salt diet (4.4%) or high salt diet plus L-NAME (10 mg/kg/day) in the drinking water for 4 weeks (n=16 rats per group). On the day of the experiment the rats were anaesthetised and venous and arterial cannulae inserted. After a one hour rest equilibration period the rats were randomised to vehicle control (Haemaccell, Aventis) or VIP (10 pmol/kg/min) infusion for one hour at an infusion rate of 0.017 ml/min. The hearts were then harvested, myocardial VIP concentrations were measured and myocardial fibrosis quantitated.
# The difference between the mean myocardial VIP concentrations after VIP or control infusion is a measure of VIP uptake by the heart.
# as §1
# [4] = tested on: WKY rats on high salt diet or high salt diet plus L-NAME; assay: Myocardial VIP content after four week VIP infusion (Example 4); format: in vivo, rat; details: four week intravenous infusion of VIP vs vehicle; WKY high salt diet, or high salt diet and L-NAME (FIGS. 7A and 7B)
# Protocol: FIG. 7: A—Myocardial VIP concentrations in WKY rats on a high salt diet after a four week intravenous infusion of VIP or vehicle control. B—Myocardial VIP concentrations in WKY rats on a high salt diet and L-NAME (10 mg/kg) in the drinking water after a four week intravenous infusion of VIP or vehicle control.
# (§2) VIP was measured by radioimmunoassay in known manner (see Davis R. E., Shelley S., Macdonald G. J. & Duggan K. A. (1992) The effects of a high sodium diet on the metabolism and secretion of vasoactive intestinal peptide in the rabbit. J. Physiol. 451:17-23. Duggan K. A., Ye V. Z. C., Jones D. M. Davis R. E. & Macdonald G. J. (1995) Effects of Endopeptidase 24.11 blockade on plasma and tissue concentrations of vasoactive intestinal peptide Clin. Sci. 89:267-271). The degree of myocardial fibrosis was quantitated by two methods in known manner (refer Ye V Z C, Hodge G, Yong J L C & Duggan K A (2002) Early myocardial fibrosis is associated with depletion of vasoactive intestinal peptide in the heart Exp. Physiol 87:539-546 Ye V Z C, Hodge G, Yong J L C & Duggan K A (2003) Myocardial VIP and myocardial fibrosis induced by nitric oxide synthase inhibition in the rat Acta Physiol. Scand. 179:353-360. Ye V Z C, Hodge G, Yong J L C & Duggan K A (2004) Vasopeptidase inhibition reverses myocardial VIP depletion and decreases myocardial fibrosis in salt sensitive hypertension Europ. […]
# [5] = tested on: isolated trabeculae of human hearts; details: human hearts of previously healthy individuals; cited from earlier work
# [6] = tested on: WKY rats on high salt diet, high salt diet plus L-NAME, or with streptozotocin induced diabetes; assay: Regression of existing myocardial fibrosis after VIP infusion (Example 4); format: in vivo, rat; details: VIP 5 pmol/kg/min, 4 weeks, three models: high salt, streptozotocin diabetes (FIGS. 4 to 6)
# Protocol: as §2, with “Europ. J. Pharmacol. 485:235-242).” for “Europ.”
structure (smiles),measurement,setting,value
CC[C@H](C)[C@H](NC(=O)[C@H](CO)NC(=O)[C@H](CC(N)=O)NC(=O)[C@H](CC(C)C)NC(=O)[C@H](Cc1ccc(O)cc1)NC(=O)[C@H](CCCCN)NC(=O)[C@H](CCCCN)NC(=O)[C@@H](NC(=O)[C@H](C)NC(=O)[C@H](CCSC)NC(=O)[C@H](CCC(N)=O)NC(=O)[C@H](CCCCN)NC(=O)[C@H](CCCNC(=N)N)NC(=O)[C@H](CC(C)C)NC(=O)[C@H](CCCNC(=N)N)NC(=O)[C@@H](NC(=O)[C@H](Cc1ccc(O)cc1)NC(=O)[C@H](CC(N)=O)NC(=O)[C@H](CC(=O)O)NC(=O)[C@@H](NC(=O)[C@H](Cc1ccccc1)NC(=O)[C@@H](NC(=O)[C@H](C)NC(=O)[C@H](CC(=O)O)NC(=O)[C@H](CO)NC(=O)[C@@H](N)Cc1c[nH]cn1)C(C)C)[C@@H](C)O)[C@@H](C)O)C(C)C)C(=O)N[C@@H](CC(C)C)C(=O)N[C@@H](CC(N)=O)C(N)=O [VIP],"myocardial fibrosis index, treated rats compared to the control groups",[1],significantly lower
same,"myocardial fibrosis index, treated rats compared to the control groups",[2],significantly lower
same,"myocardial function (left ventricular functions, coronary flow, tissue injury)",isolated rat heart,significant improvement of myocardial function
same,uptake of VIP by the heart from the plasma (difference between mean myocardial VIP concentrations after VIP or control infusion),[3],"As fibrosis worsens the amount of VIP taken up by the heart increases; also recorded: more avid with increasing degrees of fibrosis; also recorded: the higher the level of fibrosis, the greater the uptake of VIP by the heart; also recorded: found to increase as the degree of fibrosis increased"
same,myocardial content of VIP / uptake of exogenous VIP,[4],clear association between the degree of fibrosis and uptake of exogenous VIP
same,ionotropic effect in atria and ventricles,[5],direct positive ionotropic effect
same,regression of existing myocardial fibrosis,[6],regression of myocardial fibrosis in the three models
